Starred links: 1 amine or outer side, 2 acyl side, 3 side chain; linkers in the order of their positions; H or OH if unused. Non-standard residues stand in square brackets, D forms with d. Residues, ends and D or L forms follow the SMILES beside them. Groups on a side chain read outwards from the residue. *: point of attachment. C18 diacid = O=C(O)CCCCCCCCCCCCCCCCC(=O)*; γGlu = O=C(O)[C@H](CCC(=O)[*:2])N[*:1]; εLys = N[C@@H](CCCCN[*:1])C(=O)[*:2]; Aib = CC(C)(N)C(=O)O

For orientation: Tmax means the time at which the peak concentration occurs.

The nature of this data set: Pharmacokinetic study in dogs after oral dosing of tablets with SNAC. In kind it is in vivo, Beagle dogs. As to the method: The purpose of this example is to determine the half-life and plasma exposure in vivo of the compounds of the present invention after p.o. administration to beagle dogs, i.e. the terminal half-life and concentration of test substance that reaches circulation with time. This is done in a pharmacokinetic (PK) study, where these parameters of the compound in question are determined. By terminal half-life is generally meant the period of time it takes to halve a certain plasma concentration, measured after the initial distribution phase.
The amount of SNAC in the tablet composition was 100-300 mg, the amount of magnesium stearate in the tablet composition was 7.7 mg, and the target amount of each test substance in the tablet composition was 3-4 mg.
Male beagle dogs, 1-7 years of age and weighing 9-17 kg during the study period, were included in the study. The dogs were dosed in a fasting state. The dogs were group housed in pens (12 hours light: 12 hours dark), and fed individually and restrictedly once daily with Royal Canin Medium Adult dog food (Royal Canin Products, China Branch, or Brogaarden A/S, Denmark). The dogs were used for repeated PK studies with a suitable wash-out period between successive dosing. An appropriate acclimatization period was given prior to initiation of the first PK study. All handling, dosing, and blood sampling of the animals were performed by trained and skilled staff. Before the studies, the dogs were fasted overnight and from 0 to 4 hours after dosing. The dogs were restricted to water 1 hour before dosing until 4 hours after dosing, but otherwise had ad libitum access to water during the whole period.
The compositions were administered by a single oral dosing to the dogs in groups of 6-8 dogs. […] The mouth was then closed, and 10 mL of tap water was given by syringe or gavage to facilitate swallowing of the tablet.
One blood sample was drawn before dosing, and additional samples were drawn at predefined time points after dosing for up to 240 hours, such as up to 10 hours, to adequately cover the full plasma concentration-time absorption profile of the test substance. For each blood sample time point, approximately 0.8 mL of whole blood was collected in a 1.5 mL EDTA-coated tube, which was gently turned to mix the sample with EDTA. Blood samples were collected in EDTA buffer (8 mM) and then centrifuged at 4° C. 2000 g for 10 minutes. Plasma was pipetted into Micronic tubes on dry ice, and kept at −20° C. or lower until analysis. Blood samples were taken as appropriate, for example from a venflon in the cephalic vein in the front leg for the first 2 hours and then with syringe from the jugular vein for the rest of the time points. The first few drops were allowed to drain from the venflon to avoid heparin saline from the venflon in the sample.
All blood samples were collected into test tubes containing EDTA for stabilisation and kept on ice until centrifugation. Plasma was separated from whole blood by centrifugation and the plasma was stored at −20° C. or lower until analysis.
The plasma was analysed for test substance using LC-MS (Liquid Chromatography-Mass Spectrometry) as known to the person skilled in the art. […] RP-HPLC separation was achieved using a linear gradient of 1:1 acetonitrile/methanol in 1% aqueous formic acid using either: a Phenomenex Onyx Monolithic C18 column (50×2.0 mm) and a flow rate of 0.8 mL/min at 30° C.; or an Agilent Poroshell 120 SB-C18 column (50×2.1 mm, 2.7 μm) at a flow rate of 0.4 mL/min at 60° C. The mass spectrometer was operated in either positive ionization SIM mode or positive ionization PRM mode.
For each individual animal, a plasma concentration-time profile was analysed by a non-compartmental model in Pharsight Phoenix WinNonLin ver.

Setting [1] is: oral tablet, SNAC 100 mg, test substance 3 mg, Beagle dogs, arithmetic mean.

Turning to `CC[C@H](C)[C@H](NC(=O)[C@H](Cc1ccccc1)NC(=O)[C@H](CCC(=O)O)NC(=O)[C@H](CCCNC(=N)N)NC(=O)[C@H](C)NC(=O)[C@H](C)NC(=O)[C@H](CCC(N)=O)NC(=O)[C@H](CCCCNC(=O)[C@@H](N)CCCCNC(=O)[C@@H](N)CCCCNC(=O)CC[C@H](NC(=O)CCCCCCCCCCCCCCCCC(=O)O)C(=O)O)NC(=O)[C@H](CCC(=O)O)NC(=O)[C@H](CC(C)C)NC(=O)[C@H](Cc1ccc(O)cc1)NC(=O)[C@@H](NC(=O)[C@H](CO)NC(=O)[C@H](Cc1ccc(O)cc1)NC(=O)[C@H](CC(=O)O)NC(=O)[C@H](CO)NC(=O)[C@@H](NC(=O)[C@H](Cc1ccccc1)NC(=O)[C@@H](NC(=O)CNC(=O)[C@H](CCC(=O)O)NC(=O)C(C)(C)NC(=O)[C@@H](N)Cc1ccc(O)cc1)[C@@H](C)O)[C@@H](C)O)[C@@H](C)CC)C(=O)N[C@@H](CCC(=O)O)C(=O)N[C@@H](Cc1c[nH]c2ccccc12)C(=O)N[C@@H](CC(C)C)C(=O)N[C@@H](CC(C)C)C(=O)N[C@@H](C)C(=O)NCC(=O)NCC(=O)N1CCC[C@H]1C(=O)N[C@@H](CO)C(=O)N[C@@H](CO)C(=O)NCC(=O)N[C@@H](C)C(=O)N1CCC[C@H]1C(=O)N1CCC[C@H]1C(=O)N1CCC[C@H]1C(=O)N[C@@H](CO)C(=O)O` [Compound 9] (H-Y[Aib]EGTFTSDYSIYLEK([εLys-εLys-γGlu-C18 diacid])QAAREFIEWLLAGGPSSGAPPPS-OH), for the setting “dog, in vivo, po”, the AUC/Dose came out at 12.1 kg·h/L and the Cmax/Dose is listed as 0.24 kg/L.
For the molecule `CC[C@H](C)[C@H](NC(=O)[C@H](Cc1ccccc1)NC(=O)[C@H](CCC(=O)O)NC(=O)[C@H](CCCNC(=N)N)NC(=O)[C@H](C)NC(=O)[C@H](C)NC(=O)[C@H](CCC(N)=O)NC(=O)[C@H](CCCCNC(=O)[C@@H](N)CCCCNC(=O)[C@@H](N)CCCCNC(=O)CC[C@H](NC(=O)CCCCCCCCCCCCCCCCC(=O)O)C(=O)O)NC(=O)[C@H](CCC(=O)O)NC(=O)[C@H](CC(C)C)NC(=O)[C@H](CC(C)C)NC(=O)[C@@H](NC(=O)[C@H](CO)NC(=O)[C@H](Cc1ccc(O)cc1)NC(=O)[C@H](CC(=O)O)NC(=O)[C@H](CO)NC(=O)[C@@H](NC(=O)[C@H](Cc1ccccc1)NC(=O)[C@@H](NC(=O)CNC(=O)[C@H](CCC(=O)O)NC(=O)C(C)(C)NC(=O)[C@@H](N)Cc1ccc(O)cc1)[C@@H](C)O)[C@@H](C)O)[C@@H](C)CC)C(=O)N[C@@H](CC(N)=O)C(=O)N[C@@H](Cc1c[nH]c2ccccc12)C(=O)N[C@@H](CC(C)C)C(=O)N[C@@H](CC(C)C)C(=O)N[C@@H](C)C(=O)NCC(=O)NCC(=O)N1CCC[C@H]1C(=O)N[C@@H](CO)C(=O)N[C@@H](CO)C(=O)NCC(=O)N[C@@H](C)C(=O)N1CCC[C@H]1C(=O)N1CCC[C@H]1C(=O)N1CCC[C@H]1C(=O)N[C@@H](CO)C(=O)O` [Compound 15] (H-Y[Aib]EGTFTSDYSILLEK([εLys-εLys-γGlu-C18 diacid])QAAREFINWLLAGGPSSGAPPPS-OH), under “dog, in vivo, po”, the Tmax is on record as 2.0 h and the t1/2 is reported as 46 h.
For the molecule `CC[C@H](C)[C@H](NC(=O)[C@H](Cc1ccccc1)NC(=O)[C@H](CCC(=O)O)NC(=O)[C@H](CCCNC(=N)N)NC(=O)[C@H](C)NC(=O)[C@H](C)NC(=O)[C@H](CCC(N)=O)NC(=O)[C@H](CCCCNC(=O)[C@@H](N)CCCCNC(=O)[C@@H](N)CCCCNC(=O)CC[C@H](NC(=O)CCCCCCCCCCCCCCCCC(=O)O)C(=O)O)NC(=O)[C@H](CCC(=O)O)NC(=O)[C@H](CC(C)C)NC(=O)[C@H](Cc1ccc(O)cc1)NC(=O)[C@@H](NC(=O)[C@H](CO)NC(=O)[C@H](Cc1ccc(O)cc1)NC(=O)[C@H](CC(=O)O)NC(=O)[C@H](CO)NC(=O)[C@@H](NC(=O)[C@H](Cc1ccccc1)NC(=O)[C@@H](NC(=O)CNC(=O)[C@H](CCC(=O)O)NC(=O)C(C)(C)NC(=O)[C@@H](N)Cc1ccc(O)cc1)[C@@H](C)O)[C@@H](C)O)[C@@H](C)CC)C(=O)N[C@@H](CCC(=O)O)C(=O)N[C@@H](Cc1c[nH]c2ccccc12)C(=O)N[C@@H](CC(C)C)C(=O)N[C@@H](CC(C)C)C(=O)N[C@@H](CCCNC(=N)N)C(=O)NCC(=O)NCC(=O)N1CCC[C@H]1C(=O)N[C@@H](CCC(=O)O)C(=O)N[C@@H](CO)C(=O)NCC(=O)N[C@@H](C)C(=O)N1CCC[C@H]1C(=O)N1CCC[C@H]1C(=O)N1CCC[C@H]1C(=O)N[C@@H](CO)C(=O)O` [Compound 13] (H-Y[Aib]EGTFTSDYSIYLEK([εLys-εLys-γGlu-C18 diacid])QAAREFIEWLLRGGPESGAPPPS-OH), under setting [1], the AUC/Dose stood at 14.8 kg·h/L and the Cmax/Dose was found to be 0.29 kg/L.
